Laboratory results from patent US6773705B1, “Methods for diagnosing and treating autoimmune disease” (General Hospital Corporation, priority 1998, dated 2004).
Square brackets hold non-standard residues; d marks the D form. Peptide text beside a SMILES is read from it. * marks the point of attachment. Nva = CCC[C@H](N)C(=O)O; Cbz = O=C(OCc1ccccc1)*

Columns and labels:
[1] = target: T1, NFκBp65-associated protein kinase (cytosolic); experiment: In vitro kinase assay, GST-CTD phosphorylation by GST-NFκBp65-precipitated complexes from Molt-4 cytosolic extract; assay type: biochemical, human; conditions: GST-CTD substrate, FIG. 1C
T1 construct: other: cytosolic; GST-C
Method: (§2) GST-NFκp65 and GST-CTD were expressed in BL21 pLysS E. Coli cells and purified by selective absorption to glutathione sepharose beads. GST-NFκBp65 was incubated with Molt-4 cytosolic and nuclear extracts, prepared as described above. Reaction mixtures were washed in PBS. The precipitated complexes were then incubated with GST-CTD of RNA polymerase II large subunit in kinase buffer containing γ-[^32P]ATP as previously described (Hayashi et al., 1993, J. Biol. Chem., 268: 26790-26795; Faustman et al., 1989, Diabetes, 38: 1462-1468). One-fortieth of the input (I) and supernatant (S) fractions and 1/40 of the last wash (W) and pellet (P) fractions were used for in vitro kinase reaction. Protein complexes were collected by brief centrifugation, washed and then incubated with GST-CTD substrates in kinase buffer containing y-^32P ATP. The products of the in vitro kinase reactions were then analyzed on SDS-PAGE. […] To determine whether the kinase activity of NFκBp65-associated protein kinase were sensitive to DRB, the ability of DRB to inhibit the kinase activity of NFκBp65 association protein kinase was tested by examining the phosphorylation of CTD in the presence of different concentrations of DRB. […] Quantitation of the gel shown in FIG. 1C with an image analyzer (a BAS 3000 phosphorimager) was plotted on a graph. […]

[2] = target: NFκBp65-associated protein kinase (nuclear); assay type: biochemical, human; conditions: GST-CTD substrate, FIG. 1C
Method: as §2

20S proteasome [3] = experiment: In vitro p105/p60Tth processing assay with mouse spleen cytosolic extracts; assay type: biochemical; conditions: MG115 50 μM, FIG. 12A, 12B right
Method: To investigate whether the altered abundance of p50 in NOD mouse spleen cells could be attributable to defective processing of p105 by the proteasome, the processing of p105 by cytosolic extracts of NOD mouse spleen cells was examined using recombinant p105 or the truncated version p60Tth as substrates. The in vitro p105 processing assay reaction was performed as previously described (Fan and Maniatis, 1991, supra). In brief, p105 and p60Tth expression constructs were subjected to in vitro transcription and translation in a wheat germ extract system (Promega) in the presence of [^35S]methionine. The ^35S-labeled p105 and p60th proteins were immunoprecipitated with polyclonal antibodies to p50 and purified for use as substrates. Each substrate protein was incubated for 90 minutes at 30° C. with spleen cytosolic extract (20 or40 μg of protein) in a final volume of 25 μl in the absence or presence of 10 mM ATP (Palombella et al., 1994, supra). The proteasome inhibitor MG115 was also added to the reaction mixture where indicated (FIG. 12). The processed proteins were separated by SDS-polyacrylamide gel electrophoresis (PAGE) on a 10% gel and visualized by autoradiography. […] When p60Tth was incubated with cytosolic extracts of BALB/c cells in the presence of […], mature p50 was generated (FIG. 12A, center). […]

proteasome = experiment: In vitro p105 processing assay with cytoplasmic extracts of T1, T2, Molt-4 and Jurkat cells; assay type: biochemical; conditions: 50 μg MG115; cell line cytoplasmic extracts; FIG. 12G
Method: The labeled p105 was incubated with the cytosolic extracts of these cell lines (20 or 40 μg of protein at left and center) and the reaction mixtures were incubated with (center; FIGS. 12E, F and G) or without (upper; FIGS. 12E, F and G) 10 mM ATP in a wheat germ extract system (Promega) as above. Incubations were also performed in the absence (−) or presence (+) of 50 μg MG115 (lower; FIGS. 12E, F and G). Lane 1 in all gels presented in FIGS. 12E, F and G corresponds to reaction mixtures without substrate. Incubations were performed at 30° C. for 90 minutes, after which the reaction mixtures were analyzed by SDS-PAGE and autoradiography. […] When p105 was incubated with the cytoplasmic extracts of T1 cells, Molt-4 cells and Jurkat cells in the presence of 10 mM ATP, the mature p50 was detected (FIG. 12F); however, the p50 was not generated by incubation of p105 with the cytoplasmic extracts prepared from T2 cells in the presence of 10 mM ATP (FIG. 12F, lanes 4 and 5). To verify that the maturation processing of p50 in the in vitro reaction was mediated by the proteasome processing pathway, the effect of MG115 on proteasome function was examined.

20S proteasome [4] = conditions: MG115 50 μM; Palombella et al., 1994; cited from earlier work
NF-κB [5] = experiment: EMSA of nuclear NF-κB DNA-binding activity in TNF-α-treated cell lines; assay type: cell-based; conditions: TNF-α 10 ng/ml, 4 h, FIG. 11A
Method: Furthermore, in the […] cell line, in which Lmp2 and Lmp7 genes have been deleted, NF-κB is not activated in response to TNF-α. The effect of TNF-α treatment on the DNA-binding activity of nuclear NF-κB was examined (FIG. 11). EMSA was performed such that cell extracts from mutant T2 cells compared to those of control T1 cells, Molt-4 cells and Jurkat cells after stimulation for 4 h in the absence (−) or presence (+) of 10 ng/ml TNF-α.
-unlabeled oligonucleotide (κB1). Double-stranded oligodeoxynucleotides were synthesized on a DNA synthesizer by the phosphoramidite method and purified on an OPC cartridge. […] The DNA-protein complexes were resolved by electrophoresis on nondenaturing 8% polyacrylamide gels with 0.5×TBE (Tris-borate-EDTA) buffer at 4° C. For competition experiments, nuclear extracts was incubated for […] at 4° C. with a 100-fold molar excess of unlabeled κB oligonucleotide before addition of the radioactive probe. Cytosolic extracts were treated with 1.2% NP-40 and 0.8% deoxycholate to dissociate IκB from NF-κB before incubation with 3^2P-labeled probe. For supershift assays, nuclear extracts were incubated with specific antibodies in 1 hour at 4° C. before addition of DNA probes. Lanes 1 correspondes to negative controls in which nuclear extract was not added.

IκBα = experiment: Immunoblot of cytosolic IκBα in TNF-α-treated spleen lymphocytes; assay type: cell-based, mouse; conditions: TNF-α 10 ng/ml, FIG. 10B
Method: The basal expression of NF-κB subunits, IκBa and cyclin-dependent kinases was examined by immunoblot analysis of cytosolic and nuclear extracts of male (M) or female (F) BALB/c and NOD mouse spleen cells (FIG. 10). In these experiments, extracts of spleen cells were subjected to SDS-PAGE on a 12.5% gel under non-reducing conditions. The separated proteins were transferred electrophoretically to a polyvinylidene difluoride (PVDF) membrane which was then incubated for 2 hours at room temperature with TBS-T (20 mM Tris-HCl, pH 7.6; 137 mM NaCl; 0.05% volume/volume Tween 20) containing 8% (weight/volume) bovine serum albumin. The membrane was then incubated for 12 h at 4° C. with TBS-T containing the appropriate polyclonal antibodies, washed 4×5 minutes with TBS-T at room temperature, incubated for 2 hours at room temperature with TBS-T containing alkaline phosphatase-conjugated secondary antibodies, washed five times with TBS-T and subjected to the alkaline phosphatase color reaction. […]
To assess the dynamics of IκBα protein expression occurring during lymphocyte activation by TNF-α treatment, subcellular fractions from lymphocytes derived from BALB/c and NOD spleen were treated with 10 ng/ml TNF-α. […] IκBα protein was readily detected in the cytosolic extracts from both unstimulated lymphocytes, BALB/c and NOD. […]

spleen cells = experiment: TNF-α cytotoxicity of spleen cells (viable cell count, DNA fragmentation); assay type: cell-based, mouse
Method: One critical function of NFκB is to provide protection to cells from the effects of exogenous TNF-α. […] Spleen cells were cultured for 24 hours after exposure to various concentrations (2, 5, 10 or 20 ng/ml) of TNF-α, as indicated on the X axis of the figure. Viable cells remaining after TNF-α treatment are shown as a percentage of viable control (untreated) cells. Standard deviations were calculated from four independent readings within a single experiment. The survival over time of cells treated with TNF-α is charted in FIG. 13B. Spleen cells were treated with TNF-α (10 ng/ml), and viable cells were counted at various times following treatment as indicated on the X axis of the figure.
(§1) DNA fragmentation was evaluated and detected by agarose gel electrophoresis after spleen cells were cultured in 10 ng/ml TNF-α for 24 hours. […] Embryonic fibroblasts prepared from BALB/c and NOD mice were cultured DMEM containing 10% fetal bovine serum and then incubated with various concentrations of TNF-α for 24 hours (FIG. 13D, top) or with TNF-α at 10 ng/ml for the indicated times (FIG. 13D, bottom). Cell viability was assessed by trypan blue exclusion. Data are means±SD of four replicates from a representative experiment, and are expressed as a percentage of the survival value for the corresponding cells not exposed to TNF-α.

[6] = test system: mouse embryonic fibroblasts (MEF); experiment: TNF-α cytotoxicity of embryonic fibroblasts (trypan blue exclusion); assay type: cell-based; conditions: NOD MEF; various TNF-α concentrations 24 hours or 10 ng/ml over time; FIG. 13D
Method: as §1

NF-κB [7] = experiment: EMSA of NF-κB DNA-binding activity in nuclear extracts of TNF-α-treated spleen cells; conditions: NOD mouse spleen cells (male and female); TNF-α 10 ng/ml, 4 hours; FIG. 8A
Method: In order to assess the influence of TNF-α on NFκB in an in vitro system, a DNA/protein binding assay was undertaken. Nuclear extracts were prepared from BALB/C and NOD mice by methods described above. The binding activities were examined by EMSA with ^32P end-labeled oligonucleotide containing an NFκB recognition sequence. Spleen cells were stimulated with TNF-α treatment (10 ng/ml;+) or without TNF-α treatment (−) and nuclear extracts from the treated cells were prepared 4 hours later. Nuclear extract prepared from spleen cells of BALB/C (lanes 2-5; FIG. 8A) and NOD (lanes 6-9; FIG. 8A) mice and Molt-4 cells (lanes 10 and 11; FIG. 8A) were incubated with DNA probe as follows:
Double-stranded κB wt, κB mut or IL-R2α κB oligonucleotides were end-labeled using [α-^32P]dCTP and Klenow polymerase. Binding reactions of the DNA probe with nuclear extracts were performed at 37° C. for minutes in a total volume of 10 μl of buffer containing 10 mM Hepes (H 7.9), 50 mM KCl, 5 mM Tris-HCl (pH 7.0), 1 mM DTT, 15 mM EDTA, 10% (v/v) glycerol, 1.0 μg of poly (dI.dC), and 4 ng of the labeled probe. The DNA-protein complexes were resolved on nondenaturing 8% polyacrylamide gels. Electrophoresis was performed with 0.5×TBE buffer (4.5 mM Tris-HCl, 4.5 mM boric acid, 0.1 mM EDTA) at 4° C. A negative binding control, to which no nuclear extract was added, was run in lane 1. […]

OC[C@H]1O[C@@H](n2cnc3cc(Cl)c(Cl)cc32)[C@H](O)[C@@H]1O [DRB, 5,6-dichloro-1-β-D-ribofuranosylbenzimidazole]
concentration required for 50% inhibition of the activity of NFκBp65-associated protein kinase [1]: 10 µM | concentration required for 50% inhibition of the activity of NFκBp65-associated protein kinase [2]: 1 µM

CCC[C@@H](C=O)NC(=O)[C@H](CC(C)C)NC(=O)[C@H](CC(C)C)NC(=O)OCc1ccccc1 [MG115] (Cbz-Leu-Leu-[Nva]-aldehyde)
processing of p105 and p60Tth (20S proteasome [3]): completely inhibited | p105 processing to p50 (proteasome): clearly resulted in defective p105 processing | processing of p105 (20S proteasome [4]): prevent the processing of p105

TNF-α
expression of the active nuclear form of NF-κB on EMSA (NF-κB [5]; T1, Molt-4 and Jurkat cells): markedly detected | NF-κB activity (NF-κB [5]; T2 cells (Lmp2, Lmp7 deleted)): not induced | time to disappearance of cytosolic IκBα (IκBα; BALB/c lymphocytes): ≤ 40 min | cytosolic IκBα during TNF-α treatment (IκBα; NOD lymphocytes): clearly detected after 40 minutes of stimulation and then stably expressed | DNA fragmentation by agarose gel electrophoresis (spleen cells; NOD but not BALB/c spleen cells, TNF-α 10 ng/ml, 24 hours, FIG. 13C): resulted in apoptosis | toxicity, cell survival (spleen cells; NOD spleen cells, TNF-α 2-20 ng/ml, 24 hours, or 10 ng/ml over time, FIG. 13A, 13B): toxic | cellular toxicity [6]: no cellular toxicity | NF-κB activation (NF-κB [7]): only slightly induced
